Source: patent US20080146511A1, “SELECTION METHOD OF PEPTIDES, PEPTIDES, METHOD AND KIT OF INFECTION IDENTIFICATION BY MYCOBACTERIUM LEPRAE, PHARMACEUTICAL OR IMMUNOLOGICAL COMPOSITIONS CONTAINING PEPTIDES OF MYCOBACTERIUM LEPRAE OR SEQUENCES FUNCTIONALLY EQUIVALENT” (Fundacao Oswaldo Cruz - FIOCRUZ, priority 2006, published 2008)
Entries after “also recorded” stand apart in the source; their conditions may differ.

Tested on: PBMC (peripheral blood mononuclear cells)
Assay type: cell-based, human
Set-up: key to IFN-γ response specificity mark (asterisk): *: Peptides that induced response in leprosy patients only, or contact groups (but not in TB or EC groups) appear with an asterisk
Settings: for IFN-γ responses in groups TB and EC: PBMC of TB patients and endemic controls, day 5, cutoff 125 pg/ml; for IFN-γ responses in groups TB and EC / specificity of IFN-γ response (PB and HC versus TB, EC, NEC): 10 μg/ml; for specificity of IFN-γ response (PB and HC versus TB, EC, NEC) / IFN-γ response specificity mark (asterisk): PBMC, day 5; for IFN-γ response specificity mark (asterisk): peptide 10 μg/ml, leprosy patients/contacts vs TB and EC groups; for comparison of IFN-γ levels between groups (ANOVA, Tukey post hoc): PB, MB, HC, TB, EC

Sequence | IFN-γ response specificity mark (asterisk) | further results
TIEFLWQEGHSAHIE [p72, M. leprae ML1553 proS aa 154-168] | – | IFN-γ responses in groups TB and EC: induced responses in individuals in groups TB and EC; also recorded: most frequent responses in groups EC or TB
AAALEQLLGQTADVA [p51, M. leprae ML1057 aa 54-68] | p51* | specificity of IFN-γ response (PB and HC versus TB, EC, NEC): specific, inducing good responses in groups PB and HC, and no response in groups TB, EC or NEC
FDEYRAMFALSAMDL [p56, M. leprae ML0308 aa 17-31] | p56* | –
VKAVVDDVNAILLTGR [p74, M. leprae ML1915 aa 89-104] | p74* | –
VYLYNYLLAETSHVL [p86, M. leprae ML0840c aa 287-301] | p86* | –
LQAYSNLFGRTSAMQ [p92, M. leprae ML2452c aa 28-42] | p92* | capacity to discriminate PB patients from exposed healthy individuals (HC): discriminate individuals with known infection by Mycobacterium leprae (patients PB) from those individuals exposed to said microorganism, but healthy; comparison of IFN-γ levels between groups (ANOVA, Tukey post hoc): induced the same kind of response
YGQVVRDVENTLRYL [p80, M. leprae ML0126 aa 125-139] | p80* | –
RVSYGSECRSGNCLR [p40, M. leprae ML0008c aa 107-121] | p40* | –
TRLLTVVVKQRSKAF [p38, M. leprae ML0008c aa 21-35] | p38* | –
THAFDLVLSSHLLFT [p57, M. leprae ML0308 aa 139-153] | – | IFN-γ responses in groups TB and EC: induced responses in individuals in groups TB and EC
GMDVGKVEALKIDGD [p93, M. leprae ML2591 mce1C aa 62-76] | – | IFN-γ responses in groups TB and EC: most frequent responses in groups EC or TB
DATFQVIFSQHVHLS [p83, M. leprae ML0394c aa 97-111] | p83* | –
GRYYAEINSAKMYFG [p49, M. leprae ML1057 aa 10-24] | p49* | –
QLMYLIEITSETKAL [p48, M. leprae ML0394c aa 22-36] | p48* | –
GDVWKSIVHLRSTRH [p81, M. leprae ML0126 aa 180-194] | p81* | –
VGKVQGLLARLLTLP [p76, M. leprae ML2498 aa 75-89] | p76* | –
EAVLLRLDGTTLEVE [p65, M. leprae ML1419c aa 108-122] | p65* | specificity of IFN-γ response (PB and HC versus TB, EC, NEC): specific, inducing good responses in groups PB and HC, and no response in groups TB, EC or NEC
LLEEGVIVL [p68, M. leprae ML1419c aa 267-275] | p68* | capacity to discriminate PB patients from exposed healthy individuals (HC): discriminate individuals with known infection by Mycobacterium leprae (patients PB) from those individuals exposed to said microorganism, but healthy; comparison of IFN-γ levels between groups (ANOVA, Tukey post hoc): induced the same kind of response
DSTDTTDWSTAMTDA [p77, M. leprae ML2703 trxB aa 331-335] | p77* | –
GNAMTTLGGRGISVV [p79, M. leprae ML0098 fbpC aa 84-98] | – | IFN-γ responses in groups TB and EC: induced responses in individuals in groups TB and EC; also recorded: most frequent responses in groups EC or TB
AILYRKIHGQDPAER [p60, M. leprae ML0398c aa 288-302] | – | IFN-γ responses in groups TB and EC: induced responses in individuals in groups TB and EC

Sequence | IFN-γ response specificity mark (asterisk) | further results
DDFLSLQRSISPNSY [p44, M. leprae ML0126 aa 251-265] | p44* | –
LDIYTTLARDMAAIP [p71, M. leprae ML1553 proS aa 180-194] | p71* | –
LILGLLPAI [p61, M. leprae ML0398c aa 16-24] | p61* | specificity of IFN-γ response (PB and HC versus TB, EC, NEC): more specific than longer 15-mer peptide
LNQLVSLVKQIFVQQ [p47, M. leprae ML0394c aa 73-87] | p47* | –
KKRLTLLSGAMARRA [p82, M. leprae ML0394c aa 141-155] | p82* | –
NHAVSSDFKTRSTNT [p54, M. leprae ML2567 aa 72-86] | p54* | –
LQPYRLLRGGDSEYW [p75, M. leprae ML2177c aa 169-183] | p75* | capacity to discriminate PB patients from exposed healthy individuals (HC): discriminate individuals with known infection by Mycobacterium leprae (patients PB) from those individuals exposed to said microorganism, but healthy; comparison of IFN-γ levels between groups (ANOVA, Tukey post hoc): significantly higher in HC
MATIRTVRNLKLCNP [p37, M. leprae ML0008c aa 1-15] | – | IFN-γ responses in groups TB and EC: induced unexpected responses in groups EC or TB
QVIFRDLTTQKAAEE [p66, M. leprae ML1419c aa 137-151] | p66* | –
GINLPKDELTAFGRK [p63, M. leprae ML0757c aa 6-20] | p63* | –
SGRVTYLNPVGVKWM [p67, M. leprae ML1419c aa 51-65] | p67* | capacity to discriminate PB patients from exposed healthy individuals (HC): discriminate individuals with known infection by Mycobacterium leprae (patients PB) from those individuals exposed to said microorganism, but healthy; comparison of IFN-γ levels between groups (ANOVA, Tukey post hoc): higher in PB
RLDGTTLEV [p69, M. leprae ML1419c aa 113-121] | p69* | comparison of IFN-γ levels between groups (ANOVA, Tukey post hoc): significantly higher in HC (p=0.02) and in PB (p=0.01); specificity of IFN-γ response (PB and HC versus TB, EC, NEC): specific, inducing good responses in groups PB and HC, and no response in groups TB, EC or NEC
LDDFLSLQRSISPNS [p42, M. leprae ML0126 aa 250-264] | p42* | –
MQEYRGLTSHTPCCR [p70, M. leprae ML1420 aa 93-107] | p70* | –
RRTVKILRPLPSNIT [p53, M. leprae ML2567 aa 95-109] | p53* | –
DDIWRTLASAVITGN [p88, M. leprae ML1189c aa 55-69] | p88* | –
LATVQYDDRRRFTKE [p91, M. leprae ML2347 aa 301-315] | p91* | capacity to discriminate PB patients from exposed healthy individuals (HC): discriminate individuals with known infection by Mycobacterium leprae (patients PB) from those individuals exposed to said microorganism, but healthy; comparison of IFN-γ levels between groups (ANOVA, Tukey post hoc): induced the same kind of response
LTVVVKQRSKAFRPS [p39, M. leprae ML0008c aa 24-38] | p39* | –
QLLGQTADV [p52, M. leprae ML1057 aa 59-67] | p52* | specificity of IFN-γ response (PB and HC versus TB, EC, NEC): specific, inducing good responses in groups PB and HC, and no response in groups TB, EC or NEC
DAEWLKLTSLGLRPR [p73, M. leprae ML1829 aa 108-122] | p73* | –
